Assay results published in patent US20230049350A1, “COMPOUNDS FOR TREATING BRAIN CANCER” (Purdue Pharmaceutical Products L.P., priority 2014, published 2023).
“Also recorded” adds a separate entry of the source. Read-outs that look alike come from different tables or passages of the source.

How the values were obtained:
U87 = assay: s.c. xenograft model of GBM, U87, time to progression; format: in vivo, mice; conditions: for time to progression of the tumours: U87G xenograft
Protocol: Next, adopting the procedure of Example 3, s.c. xenograft models of GBMs in mice were prepared using the GBM cell lines U251 and U87.
The U251 mice prepared as above were subjected either subjected to radiotherapy (2 Gy for 5 consecutive days), treatment with EDO-S101 (60 mg/kg intravenously at days 1, 8 and 15 of the treatment cycle) or control only. Before any irradiation mice were anesthetized with a mixture of ketamine (25 mg/ml)/xylazine (5 mg/ml). Anesthetized tumor-bearing mice received a focal irradiation at the dose of 2 Gy for 5 consecutive days. Irradiation was delivered using an X-ray linear accelerator at a dose rate of 200 cGy/min at room temperature. All mice were shielded with a specially designed lead apparatus to allow irradiation to the right hind limb. Mice were kept under these conditions until all irradiation finished.
The same sequence of experiments was followed, but this time with the s.c. xenograft models of GBM in mice prepared using the GBM cell line U87. In a first experiment, the U87 mice prepared as above were subjected either subjected to radiotherapy (2 Gy for 5 consecutive days), treatment with EDO-S101 (60 mg/kg intravenously at days 1, 8 and 15 of the treatment cycle) or control only. A study was made of the progression of the GBM.

OCI-LY10B lymphoma cells = assay: Murine model for primary CNS lymphoma, intracerebral OCI-LY10B; format: in vivo, mice; conditions: for tumour growth: iv days +4, +11, +18; for median survival: iv days +4, +11, +18, EDO-S101 60 mg/kg, bendamustine 50 mg/kg, controls 48 days
Protocol: The procedure of Example 3 was repeated, except the murine models were created with 1×10^5 luciferase-transfected OCI-LY10B lymphoma cells to create a model of primary CNS lymphoma. EDO-S101 (60 mg/kg body weight), bendamustine (50 mg/kg body weight) and control was administered intravenously via a tail vein to separate groups of the test mice on days +4, +11 and +18 post intracerebral implantation of the OCI-LY10B lymphoma cells. […] EDO-S101 therefore appears to be a promising treatment for primary CNS lymphoma.

[1] = test system: MB-468 breast cancer cells; assay: Murine model for metastatic breast cancer of the brain, intracerebral MB-468; format: in vivo, mice; conditions: MB-468 intracerebral; for median survival: single iv dose day +4, EDO-S101 60 mg/kg, bendamustine 50 mg/kg, controls 55 days
Protocol: The procedure of Example 3 was repeated, except the murine models were created with 1×10^5 luciferase-transfected MB-468 breast cancer cells to create a […]. EDO-S101 (60 mg/kg body weight), bendamustine (50 mg/kg body weight) and control was administered intravenously via a tail vein to separate groups of the test mice in a single dose on day +4 post intracerebral implantation of the MB-468 breast cancer cells. […] EDO-S101 therefore appears to be a particularly promising treatment for metastatic brain cancer.

T98G = assay: GBM cell line viability IC50, T98G; format: cell-based
Protocol: (§1) In vitro experiments were devised in which a series of GBM cell lines representative for MGMT negative and MGMT positive tumour cells were used.
(§2) Compounds: 1-100 µM EDO-S101, 1-50 µM temozolomide (TMZ), 1-50 µM temozolomide + 500 nM vorinostat, 1-40 µM bendamustine, 1-40 µM bendamustine and 500 nM vorinostat.
Twelve glioblastoma cell lines representing grade III and IV gliomas and with different expression of MGMT, drug and radiotherapy sensitivity and five patient derived glioblastoma stem, cells were used (see above). Four patient-derived glioblastoma stem cells, kindly provided from J. Gregory Cairncross, and Samuel Weiss at the Hotchkiss Brain Institute, Faculty of Medicine, University of Calgary, Calgary, Alberta, Canada and one luciferase transfected, PTC#8, from Prof Angelo Vescovi, University la Bicocca, Milan were cultured in defined culture serum free medium (SFM) and in non-adherent spheres culture. Cells were resuspended in DMEM/F12 media without serum supplemented with 20 ng/ml epidermal growth factor (Sigma-Aldrich), 20 ng/ml basic fibroblast growth factor (Sigma-Aldrich), B-27 supplement 1X (Gibco, Life Technologies), and antibiotics. Treatment with EDO-S101 was added straight after plating 3×10^3 cells in 96-well plates with the stem cells media. Spheres were counted 5 days after treatment under an inverted microscope at ×4 magnification. A sphere was counted if it had at least 15 cells.
(§3) Cells were seeded at a density of 2 × 10^4 cells/ml in 24 well plates. Cells were left to attach and grow in 5% FCS DMEM for 24 h. […] Cells trypsinized and resuspended in 1.0 ml of saline were counted using the NucleoCounterTM NC-100 (automated cell counter systems, Chemotec, Cydevang, DK) in order to evaluate cell viability. […] IC50 values were calculated by the GraFit method (Erithacus Software Limited, Staines, UK). Cell viability was measured with the 3-(4,5 dimethylthiazol-2-yl)-2,5-diphenyl tetrazolium bromide (MTT; Sigma-Aldrich) assay.
(§4) IC50 and IC20 values for all twelve cell lines against bendamustine and vorinostat were also determined as described above. […]

U251MG = assay: GBM cell line viability IC50, U251; format: cell-based; conditions: Homo sapiens, U-251
Protocol: as §1, §2
Twelve glioblastoma cell lines representing grade III and IV gliomas and with different expression of MGMT, drug and radiotherapy sensitivity and five patient derived glioblastoma stem, cells were used (see above). […] Spheres were counted 5 days after treatment under an inverted microscope at ×4 magnification. A sphere was counted if it had at least 15 cells.
as §3, with “plates.” for “plates. Cells were left to attach and grow in 5% FCS DMEM for 24 h.”
as §4

[2] = drug in combination with radiotherapy 2 Gy x 5 days, EDO-S101 60 mg/kg iv days 1, 8, 15, temozolomide 16 mg/kg po x 5 days

For `Cn1c(CCCCCCC(=O)NO)nc2cc(N(CCCl)CCCl)ccc21` [EDO-S101], the “time to progression of the tumours” value (U87; drug alone, 60 mg/kg iv days 1, 8, 15, control approximately 15 days) was 40 days, the “time to progression of the tumours” value (U87; [2]) was “over 50 days” and the “time to progression versus radiotherapy, or versus radiotherapy and temozolomide” value (U87; U87 s.c. xenograft, drug alone, FIG. 13, FIG. 14) was “considerably longer; also recorded: greater than that achieved with the combined radiotherapy and temozolomide treatment”. The “time to progression versus EDO-S101 alone and versus radiotherapy and temozolomide” value (U87; U87 s.c. xenograft, drug plus radiotherapy, FIG. 14) was “significantly longer”, the tumour growth (OCI-LY10B lymphoma cells) was “significantly suppressed tumour growth” and the median survival (OCI-LY10B lymphoma cells) was 62 days. The tumour growth ([1]; single iv dose 60 mg/kg day +4) was “suppression of tumour growth” and the median survival [1] was 71 days.
`Cn1c(CCCC(=O)O)nc2cc(N(CCCl)CCCl)ccc21` [bendamustine] was tested, and the IC50 (T98G; Homo sapiens, T98G) was 52 µM, the tumour growth (OCI-LY10B lymphoma cells) was “significantly suppressed tumour growth” and the median survival (OCI-LY10B lymphoma cells) was 54 days. For the same compound, the IC50 (U251MG) was 30 µM and the median survival [1] was 62 days.
For `Cn1nnc2c(C(N)=O)ncn2c1=O` [temozolomide], the “time to progression of the tumours” value (U87; [2]) was 35 days, the IC50 (T98G; Homo sapiens, MGMT positive T98G glioblastoma cell line, read-out: IC50) was over 100 µM and the IC50 (T98G; T98G, MGMT pos., no unit in Table 2 (µM), read-out: IC50) was over 100 µM. It also gave an IC50 (U251MG; MGMT negative U251MG glioblastoma cell line, read-out: IC50) of 20 µM.
